The values that follow come from ChEMBL document CHEMBL3639354, “(EN) 3-sulfonyl-pyrazolo[1,5-a] pyrimidines / antagonists of serotonin 5-HT6 receptors, methods for the production and the use thereof” (2013).

The assay has as its target 5-hydroxytryptamine receptor 6 (Homo sapiens, UniProt P50406). Nature of the assay: Functional Assay: Functional assay using 5-HT6 receptors.

Chain of 5-hydroxytryptamine receptor 6 (P50406 whole entry): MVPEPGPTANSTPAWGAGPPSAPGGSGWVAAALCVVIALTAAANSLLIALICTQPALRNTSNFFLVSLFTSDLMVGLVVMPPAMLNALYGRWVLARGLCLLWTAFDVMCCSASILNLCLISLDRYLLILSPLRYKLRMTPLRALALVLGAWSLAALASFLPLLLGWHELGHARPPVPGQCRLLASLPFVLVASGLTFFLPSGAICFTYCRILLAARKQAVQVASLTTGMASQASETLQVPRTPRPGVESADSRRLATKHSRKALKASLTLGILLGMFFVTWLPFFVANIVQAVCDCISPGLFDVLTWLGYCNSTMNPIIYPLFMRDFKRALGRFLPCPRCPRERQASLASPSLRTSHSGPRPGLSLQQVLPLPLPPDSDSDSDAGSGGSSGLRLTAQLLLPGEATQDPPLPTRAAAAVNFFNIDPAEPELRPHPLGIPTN

Take `CSc1nn2c(C)cc(C)nc2c1S(=O)(=O)c1ccc(F)c(Cl)c1`: the IC50 (usually the concentration that gives 50% inhibition) was 46 nM.
